Data set [1] concerns guanine xpt riboswitch from Streptococcus pyogenes (STPY-xpt). Briefly: Relative binding by displacement of 2-aminopurine from the STPY-xpt aptamer. As to the method:
Shown in FIG. 4A is the structure of the guanine ligand and the compounds: 4-hydroxy-2,5,6-triaminopyrimidine shown as 2,5,6-triaminopyrimidine-4-one (compound 1.01), 2,4-diamino-6-hydroxypyrimidine shown as 2,6-diaminopyrimidine-4-one (compound 1.13) and 5,6-diamino-uracil (2AU) as well as their predicted hydrogen bonds (arrows). […] The experiment was performed as in for example Mulhbacher and Lafontaine, 2007. […] Briefly, STPY-xpt aptamers were incubated in the presence of the guanine-like ligand 2-aminopurine alone (Neg. control) or in the presence of 1 or 10 μM of the above-listed compounds. The relative binding affinity was obtained from the ability of a ligand to displace the 2-aminopurine from the guanine riboswitch STPY-xpt aptamer.

The subject of data set [2] is methicillin resistant S. aureus. Description: Antibiogram with 6-thioguanine. Type of data set: cell-based. Particulars: 0.5 or 1 mg/mL.
In the next data set the test system is E. coli ATCC 35695. Briefly: Antibiogram with 6-thioguanine. Type of data set: cell-based. The note with it: 0.5 or 1 mg/mL; E. coli ATCC 35695 (lacks guaA riboswitch).
A further data set concerns S. aureus. Description: S. aureus infection of the mouse mammary glands, CFU count. Particulars: intra-mammary injection of 10 times the effective dose; treated 4 h after infection, glands excised 6 h later. It is filed as in vivo. Here is the method:
The efficacy of compound 1.01 in treating a S. aureus infection of the mouse mammary glands was examined. Briefly, mouse mammary glands were infected with 100 CFU of S. aureus. Four hours after the inoculation, the glands were treated with vehicle (PBS), 10, 50 or 100 μg/gland of compound 1.01. Six hours later, glands were excised, homogenized and plated on Mueller-Hinton agar. CFU were then counted after 18 hours at 35° C. Each dot represents the CFU of each individual gland (n=6-12) and the median value for each group is indicated by the bar. Statistical differences (P<0.05) between CFU recovered from treated and untreated animals are shown by asterisks (non-parametric Kruskal-Wallis ANOVA with Dunn's post test).

The subject of the next data set is E. coli ATCC35695. Briefly: MIC, microdilution method in 96-well microplates. The note with it: for MIC: Escherichia coli, ATCC35695, 24 h, read-out: Minimum inhibitory concentration (MIC); for Antimicrobial activity on E. coli: E. coli strain ATCC 35695. On the technique in general: In broth dilution the organism is exposed to a series of concentrations in liquid medium.

Data set [3] concerns S. aureus strain ATCC 29213. Briefly: MIC / growth inhibition, microdilution method. Type of data set: cell-based. The note with it: for MIC: Staphylococcus aureus, ATCC29213, 24 h; for S. aureus growth inhibition: Yes/No.
The nature of data set [4]: Tolerance of intramammary injection in cows. It is filed as in vivo, Holstein cows. The note with it: intramammary 100 mg, 250 mg or 500 mg per quarter, 4 cows, 48 h.
Data set [5] relates to Bacillus halodurans, S. haemolyticus, S. aureus ATCC29213, SA228a, MRSA COL, Clostridium botulinum, Clostridium difficile Cd6 and 630, S. epidermidis. Type of data set: cell-based.
For data set [6], the system named is Bacillus subtilis, Enterococcus feacium, Listeria monocytogenes, Streptococcus dysgalactiae, Streptococus pyogenes, Streptococcus uberis. It is filed as cell-based.
Another data set relates to E. coli AcrAB—/—. Description: microbe, parasite or virus in culture. Particulars: Escherichia coli, 24 h, read-out: Minimum inhibitory concentration (MIC).
Data set [7] concerns S. aureus strain ATCC 29213. It is filed as cell-based. The note with it: sub-inhibitory concentrations, MIC determined every 5 passages up to 30.
Data set [8] deals with S. aureus strain ATCC 29213. Briefly: Growth as a function of time (CFU counts). It is filed as cell-based. The note with it: compared with ciprofloxacin.
The next data set deals with C. difficile (Cd6). Briefly: Bactericidal activity, fold reduction of CFU/mL. It is filed as cell-based. Particulars: 600 μg/mL, 4 hours. As to the method:
(§1) The bactericidal activity of compound 1.01 on various strains of S. aureus (including 3 chronic strains and 3 prototypical strains) was determined. These strains include prototypical S. aureus strains ATCC 29213, Newbould 305, SHY97-3906 as well as S. aureus strains isolated from persistent and chronic bovine mastitis cases (isolates #3, #557, #1290). C. difficile strain Cd6 was also examined. […] The results are summarized in Table 5 below and are expressed as the mean fold reduction of CFU/mL (i.e., the number of CFU/mL of control bacteria divided by the number of CFU/mL of treated bacteria).

A further data set has as its system S. aureus Chronic #3. Briefly: Bactericidal activity, fold reduction of CFU/mL. Particulars: 600 μg/mL, 4 hours. Type of data set: cell-based. Here is the method:
as §1

The subject of a further data set is S. aureus Newbould 305. Description: Bactericidal activity, fold reduction of CFU/mL. It is filed as cell-based. Particulars: 600 μg/mL, 4 hours. Here is the method:
as §1

The subject of a further data set is S. aureus ATCC 29213. Briefly: Bactericidal activity, fold reduction of CFU/mL. It is filed as cell-based. The note with it: 600 μg/mL, 4 hours. Here is the method:
as §1

The next data set relates to S. aureus Chronic #1290. Description: Bactericidal activity, fold reduction of CFU/mL. Particulars: 600 μg/mL, 4 hours. Type of data set: cell-based. As to the method: as §1
The subject of a further data set is S. aureus SHY97-3906. Description: Bactericidal activity, fold reduction of CFU/mL. Type of data set: cell-based. The note with it: 600 μg/mL, 4 hours. Here is the method: as §1
Another data set relates to S. aureus Chronic #557. Description: Bactericidal activity, fold reduction of CFU/mL. Type of data set: cell-based. Particulars: 600 μg/mL, 4 hours. Here is the method: as §1
A further data set deals with S. aureus genes. Description: Transcriptomic microarray analysis of more than 500 genes. It is filed as cell-based. Particulars: 30 min.
For another data set, the system named is E. coli Imp. Briefly: microbe, parasite or virus in culture. The note with it: Escherichia coli, 24 h, read-out: Minimum inhibitory concentration (MIC).
The subject of the next data set is guanine riboswitch. Description: Guanine riboswitch binding (Table 6). Particulars: Yes/No.
Where [9] appears, read: compound at 10 μM, compared with 1 μM guanine.
Setting [10] is: S. aureus ATCC 29213, 24 h, 37° C., read-out: MIC.
Setting [11] is: S. aureus ATCC 29213, 24 h, 37° C., read-out: S. aureus growth inhibition, MIC.

≈ marks a conversion by molar mass, not a printed value. Read-outs that look alike come from different tables or passages of the source. Where only a bound is given, the exact number is not on record here.

In data set [1] (setting [9]), `Nc1[nH]c(=O)[nH]c(=O)c1N` yielded a Relative binding of 0.05.

On to `Nc1nc2[nH]cnc2c(=S)[nH]1` [6-thioguanine], for which, in data set [1] (setting [9]), the Relative binding is reported as 0.14. Also, the “Antibiotic activity in antibiogram” value (in data set [2]; with E. coli ATCC 35695) was “non-specific antibiotic activity” each time.

As to `Nc1nc(N)c(N)c(O)n1` [Compound 1.01, 4-hydroxy-2,5,6-triaminopyrimidine], in the data set with S. aureus, the “Reduction of bacterial counts” value is listed as > 3 log10. In addition, the MIC in the data set with E. coli ATCC35695 is > 5000 µg/mL; in [3] (setting [10]), ~600 µg/mL (≈ 4250 µM); in the data set with E. coli AcrAB—/—, > 5000 µg/mL; in the data set on E. coli Imp, > 5000 µg/mL. Also, the Relative binding in [1] (setting [9]) was determined as 0.26. Also, the “Cytotoxicity upon histological observations of mammary tissues” value (100 μg/gland, compared to PBS-treated glands) is given as “no apparent cytotoxicity”. Further, the “Signs of toxicity in mice (posture, breathing, piloerection, movement)” value (mouse, in vivo) is recorded as “without causing any significant signs of toxicity”. Moreover, the “Body temperature, milk appearance, milk somatic cell counts, milk quarter production” value in [4] is recorded as “no change in body temperature, milk appearance, milk somatic cell counts or individual milk quarter production”. For the same molecule, the “Sensitivity of strains in antibiogram” value in [5] is listed as “sensitive”; in data set [6], “insensitive”. Moreover, the “Passages until resistance is selected” value in data set [7] is on record as “at least 30 passages”. The “Rapidity of anti-bacterial effect” value in data set [8] is “as rapid as that of the well-known antibiotic ciprofloxacin”. Also, the “Fold reduction of CFU/mL (control/treated), Mean (log10)” value in the data set with C. difficile (Cd6) was found to be 5.42 log10; in the data set on S. aureus Chronic #3 it was 5.11 log10; with S. aureus Newbould 305, 4.86 log10; with S. aureus ATCC 29213 it was 6.67 log10; with S. aureus Chronic #1290 it was 5.42 log10; in the data set on S. aureus SHY97-3906, 6.35 log10. Besides, in the data set on S. aureus Chronic #557, the “Fold reduction of CFU/mL (control/treated), Mean (log10)” value turned out to be 4.38 log10. For the same molecule, the Genes repressed is listed as > 75% with S. aureus genes (600 μg/mL compound alone) and 20% in the data set on S. aureus genes (600 μg/mL compound supplemented with 100 μM GMP).

As to `Nc1cc(=O)[nH]c(N)n1` [Compound 1.13, 2,4-diamino-6-hydroxypyrimidine], the MIC with E. coli ATCC35695 is > 5000 µg/mL; in data set [3] (setting [10]), ~5000 µg/mL (≈ 39600 µM); in the data set on E. coli AcrAB—/—, > 5000 µg/mL; in the data set on E. coli Imp, > 5000 µg/mL. Moreover, the Relative binding in data set [1] (setting [9]) was found to be 0.39.

Consider `Nc1nc(S)[nH]c(=O)c1N` [Compound 1.16, 4,5-diamino-6-hydroxy-2-mercaptopyrimidine], for which the “Antimicrobial activity on E. coli” value in the data set on E. coli ATCC35695 is recorded as “no antimicrobial activity”. The Guanine riboswitch binding entry in the data set with guanine riboswitch is on record as “Yes”. The MIC in data set [3] (setting [11]) is 128 µg/mL (≈ 809 µM). Also, in [3], the “S. aureus growth inhibition” value was “Yes”.

As for `Nc1nc2ocnc2c(=O)[nH]1` [Compound 2.02, 5-Amino-6H-oxazolo[5,4-d]pyrimidin-7-one], in the data set on E. coli ATCC35695, the “Antimicrobial activity on E. coli” value was “no antimicrobial activity”. Moreover, the Guanine riboswitch binding entry in the data set with guanine riboswitch was “able to bind guanine riboswitch and Yes”. Further, the “S. aureus growth inhibition, MIC” value in [3] (S. aureus ATCC 29213, 24 h, 37° C.) stood at 1000 µg/mL. The MIC in data set [3] (setting [11]) worked out at 1020 µg/mL (≈ 6730 µM). Further, the “S. aureus growth inhibition” value in data set [3] was “Yes”.

Regarding `Nc1nc2nc(Cl)sc2c(=O)[nH]1` [Compound 2.17, 5-amino-2-chloro-2,3-dihydrothiazolo[4,5]pyrimidine-7-(6H)-one], the “Antimicrobial activity on E. coli” value in the data set with E. coli ATCC35695 is recorded as “no antimicrobial activity”. Further, the Guanine riboswitch binding entry in the data set with guanine riboswitch is recorded as “Yes”. Also, in data set [3] (setting [11]), the MIC worked out at 128 µg/mL (≈ 632 µM). The “S. aureus growth inhibition” value in data set [3] is “Yes”.

On to `CC[C@H]1OC(=O)[C@H](C)[C@@H](O[C@H]2C[C@@](C)(OC)[C@@H](O)[C@H](C)O2)[C@H](C)[C@@H](O[C@@H]2O[C@H](C)C[C@H](N(C)C)[C@H]2O)[C@](C)(O)C[C@@H](C)C(=O)[C@H](C)[C@@H](O)[C@]1(C)O` [Erythromicin, reference compound], for which the MIC was 128 µg/mL (≈ 174 µM) in the data set on E. coli ATCC35695, 0.5 µg/mL (≈ 0.681 µM) in data set [3] (setting [10]), 1 to 4 µg/mL (≈ 1.36 to 5.45 µM) in the data set with E. coli AcrAB—/— and 0.125 to 1 µg/mL (≈ 0.17 to 1.36 µM) with E. coli Imp.

For `CN[C@H](CC(C)C)C(=O)N[C@H]1C(=O)N[C@@H](CC(N)=O)C(=O)N[C@H]2C(=O)N[C@H]3C(=O)N[C@H](C(=O)N[C@H](C(=O)O)c4cc(O)cc(O)c4-c4cc3ccc4O)[C@H](O)c3ccc(c(Cl)c3)Oc3cc2cc(c3O[C@@H]2O[C@H](CO)[C@@H](O)[C@H](O)[C@H]2O[C@H]2C[C@](C)(N)[C@H](O)[C@H](C)O2)Oc2ccc(cc2Cl)[C@H]1O` [Vancomycin, reference compound], the MIC in the data set on E. coli ATCC35695 is > 128 µg/mL; in data set [3], 1 µg/mL (≈ 0.69 µM); in the data set on E. coli AcrAB—/—, > 128 µg/mL; in the data set on E. coli Imp it was 0.25 µg/mL (≈ 0.173 µM).

Turning to `Nc1ncnc2[nH]cnc12` [adenine], the Relative binding in [1] (setting [9]) is reported as 0.05.

Take `O=C(O)c1cn(C2CC2)c2cc(N3CCNCC3)c(F)cc2c1=O` [ciprofloxacin, reference compound]: the MIC in data set [3] (setting [10]) came to 0.5 µg/mL (≈ 1.51 µM).

Regarding `Nc1nc2[nH]cnc2c(=O)[nH]1` [guanine], in [1] (compound at 1 μM), the Relative binding is 1.

In [1] (setting [9]), `O=c1[nH]cnc2[nH]cnc12` [hypoxanthine] yielded a Relative binding of 0.50.

Consider `O=c1[nH]c(=O)c2nc[nH]c2[nH]1` [xanthine], for which the Relative binding in data set [1] (setting [9]) is reported as 0.08.

The record behind these values is patent publication US9993491B2, “Guanine riboswitch binding compounds and their use as antibiotics” (SOCPRA—SCIENCES ET GENIE S.E.C., priority 2009, dated 2018).
